Data on 1 compound can be found in US10858407B2 (priority 2014, dated 2020).

In this experiment the test system is potassium ion channel current of the DRG neurons. It is filed as cell-based, SD rats. The conditions noted are these: 5 mM.

On to `Nc1ccncc1` [4AP, 4-aminopyridine], for which the Current inhibition rate came to 0.338 and the “Current recorded after loading” value is given as 0.9766 nA.
